The record followed here is patent publication US11332463B2, “Spiropiperidine allosteric modulators of nicotinic acetylcholine receptors” (Merck Sharp & Dohme Corp., priority 2018, dated 2022).

T1 sequence (P36544 23-502): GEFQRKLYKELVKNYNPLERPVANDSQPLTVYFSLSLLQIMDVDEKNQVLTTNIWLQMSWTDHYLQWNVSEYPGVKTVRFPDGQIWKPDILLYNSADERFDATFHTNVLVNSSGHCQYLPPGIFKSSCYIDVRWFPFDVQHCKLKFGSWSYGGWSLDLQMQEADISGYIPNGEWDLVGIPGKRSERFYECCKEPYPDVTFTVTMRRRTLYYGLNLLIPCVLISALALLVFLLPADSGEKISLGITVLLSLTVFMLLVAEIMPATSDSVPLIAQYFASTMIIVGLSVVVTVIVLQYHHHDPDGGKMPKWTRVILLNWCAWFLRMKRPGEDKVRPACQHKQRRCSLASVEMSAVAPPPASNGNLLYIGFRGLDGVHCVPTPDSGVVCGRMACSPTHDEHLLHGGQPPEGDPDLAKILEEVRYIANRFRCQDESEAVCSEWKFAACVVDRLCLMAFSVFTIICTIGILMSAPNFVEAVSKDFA

The first test concerns the target T1, human α7 nicotinic acetylcholine receptor (HEK cell line stably expressing human RIC-3 and human α7) (Homo sapiens, UniProt P36544).
T1 construct: host or cells: HEK cell line (PrecisION hnAChR α7/RIC-3)
Nature of the test: Automated patch-clamp electrophysiology functional assay (Assay A), IonFlux HT, whole-cell population patch. It is filed as cell-based. To be noted: HEK cells expressing human α7/RIC-3; test compound with or without 40 μM acetylcholine; holding potential −60 mV; room temperature; read-out: α7 nAChR Potency. A general note: The patch-clamp technique gives a direct electrical read-out from membranes.
Take `NS(=O)(=O)N1CCC2(CC1)C(c1nc(-c3ccnc(OC(F)F)c3)no1)C2(F)F` (stereo not shown) [Example C9]: the EC50 fell in the range of 0.1 to 0.5 µM. As for `Cc1cnn(C2CC2)c1-c1noc(C2C(F)(F)C23CCN(S(N)(=O)=O)CC3)n1` (stereo not shown) [Example C10], the EC50 is less than 0.1 µM. For `NS(=O)(=O)N1CCC2(CC1)C(c1nc(-c3ccn4ccnc4c3)no1)C2(F)F` (stereo not shown) [Example C11], the EC50 lay in the range of 0.5 to 5 µM.

On to `NS(=O)(=O)N1CCC2(CC1)CC2c1nc(-c2c(C(F)(F)F)noc2C2CC2)no1` (stereo not shown) [Example C12], for which the EC50 lay within 0.1 to 0.5 µM.

As to `NS(=O)(=O)N1CCC2(CC1)C(c1nc(-c3ccnn3C3CC3)no1)C2(F)F` (stereo not shown) [Example C14], the EC50 fell in the range of 0.1 to 0.5 µM. `NS(=O)(=O)N1CCC2(CC1)C(c1nc(-c3c(C4CC4)noc3C(F)(F)F)no1)C2(F)F` (stereo not shown) [Example C15]: the EC50 was less than 0.1 µM. In the case of `NS(=O)(=O)N1CCC2(CC1)C(c1nc(-c3c(C(F)(F)F)noc3C3CC3)no1)C2(F)F` (stereo not shown) [Example C16], the EC50 was less than 0.1 µM. Still for that read-out and setting: as for `NS(=O)(=O)N1CCC2(CC1)C[C@H]2c1noc(-c2cccc(C(F)(F)F)c2)n1` [Example D1], the figure is 0.5 to 5 µM; as for `N#Cc1ccccc1-c1nc([C@@H]2CC23CCN(S(N)(=O)=O)CC3)no1` [Example D3], 5 to 50 µM. Take `NS(=O)(=O)N1CCC2(CC1)C[C@H]2c1noc(-c2ccccc2OC(F)F)n1` [Example D4]: the EC50 was 0.1 to 0.5 µM. On the same count and under the same terms, as for `NS(=O)(=O)N1CCC2(CC1)C[C@H]2c1noc(-c2cc(Br)ccc2C(F)(F)F)n1` [Example D6], the figure is 0.1 to 0.5 µM. As to `NS(=O)(=O)N1CCC2(CC1)C[C@H]2c1noc(-c2ccc(Cl)cc2C(F)(F)F)n1` [Example D7], the EC50 lay within 0.5 to 5 µM.

Consider `NS(=O)(=O)N1CCC2(CC1)C[C@H]2c1noc(-c2ccccc2)n1` [Example D8], for which the EC50 fell in the range of 0.5 to 5 µM.

With `NS(=O)(=O)N1CCC2(CC1)C[C@H]2c1noc(-c2ccc(C(F)(F)F)cc2OC(F)F)n1` [Example D9], the EC50 lay within 0.5 to 5 µM. Still for that read-out and setting: as for `NS(=O)(=O)N1CCC2(CC1)C[C@H]2c1noc(-c2ccc(Cl)cc2OC(F)F)n1` [Example D10], the figure is less than 0.1 µM. For the compound `NS(=O)(=O)N1CCC2(CC1)C[C@H]2c1noc(-c2cccc(OC(F)F)c2)n1` [Example D11], the EC50 is 0.5 to 5 µM. On the same count and under the same terms, as for `NS(=O)(=O)N1CCC2(CC1)C[C@H]2c1noc(-c2c(F)cccc2C(F)(F)F)n1` [Example D12], the figure is 0.5 to 5 µM. The same measure, in the same setting: as for `COc1ccc(-c2nc([C@@H]3CC34CCN(S(N)(=O)=O)CC4)no2)cc1` [Example D13], the figure is 0.5 to 5 µM; as for `NS(=O)(=O)N1CCC2(CC1)C[C@H]2c1noc(-c2ccc(OC(F)F)cc2)n1` [Example D14], 0.5 to 5 µM. On the same count and under the same terms, as for `NS(=O)(=O)N1CCC2(CC1)C[C@H]2c1noc(-c2ccc(F)cc2F)n1` [Example D15], the figure is 0.5 to 5 µM; as for `NS(=O)(=O)N1CCC2(CC1)C[C@H]2c1noc(-c2ccc(F)cc2C(F)(F)F)n1` [Example D16], 0.1 to 0.5 µM.

As for `NS(=O)(=O)N1CCC2(CC1)C[C@H]2c1noc(-c2ccccc2C(F)(F)F)n1` [Example D17], the EC50 was 0.5 to 5 µM. Same read-out and setting: as for `NS(=O)(=O)N1CCC2(CC1)C[C@H]2c1noc(-c2ccccc2OCC(F)(F)F)n1` [Example D18], the figure is 0.1 to 0.5 µM; as for `Cc1ccc(-c2nc([C@@H]3CC34CCN(S(N)(=O)=O)CC4)no2)c(C)c1` [Example D19], 0.1 to 0.5 µM. Still for that read-out and setting: as for `NS(=O)(=O)N1CCC2(CC1)C[C@H]2c1noc(-c2ccccc2OC(F)(F)F)n1` [Example D20], the figure is 0.1 to 0.5 µM; as for `NS(=O)(=O)N1CCC2(CC1)C[C@H]2c1noc(-c2cc(F)ccc2OC(F)(F)F)n1` [Example D21], 0.1 to 0.5 µM.

In the case of `NS(=O)(=O)N1CCC2(CC1)C[C@H]2c1noc(-c2cc(Cl)ccc2OC(F)(F)F)n1` [Example D22], the EC50 lay in the range of 0.1 to 0.5 µM. Still for that read-out and setting: as for `CC(C)(O)c1ccc(-c2nc([C@@H]3CC34CCN(S(N)(=O)=O)CC4)no2)cc1` [Example D23], the figure is 0.5 to 5 µM.

Staying with this test, now noted: automated patch-clamp electrophysiology functional assay (Assay A); read-out: α7 nAChR EC50.
On to `NS(=O)(=O)N1CCC2(CC1)C(c1nc(-c3ccnc(OC(F)F)c3)no1)C2(F)F` (stereo not shown) [Example C9], for which the EC50 worked out at 0.31 µM.

Consider `Cc1cnn(C2CC2)c1-c1noc(C2C(F)(F)C23CCN(S(N)(=O)=O)CC3)n1` (stereo not shown) [Example C10], for which the EC50 amounted to 0.082 µM. For `NS(=O)(=O)N1CCC2(CC1)C(c1nc(-c3ccn4ccnc4c3)no1)C2(F)F` (stereo not shown) [Example C11], the EC50 was found to be 2.5 µM. Still for that read-out and setting: as for `NS(=O)(=O)N1CCC2(CC1)CC2c1nc(-c2c(C(F)(F)F)noc2C2CC2)no1` (stereo not shown) [Example C12], the figure is 0.17 µM; as for `NS(=O)(=O)N1CCC2(CC1)C(c1nc(-c3ccnn3C3CC3)no1)C2(F)F` (stereo not shown) [Example C14], 0.15 µM. On the same count and under the same terms, as for `NS(=O)(=O)N1CCC2(CC1)C(c1nc(-c3c(C(F)(F)F)noc3C3CC3)no1)C2(F)F` (stereo not shown) [Example C16], the figure is 0.037 µM; as for `NS(=O)(=O)N1CCC2(CC1)C[C@H]2c1noc(-c2cccc(C(F)(F)F)c2)n1` [Example D1], 0.52 µM.

Take `N#Cc1ccccc1-c1nc([C@@H]2CC23CCN(S(N)(=O)=O)CC3)no1` [Example D3]: the EC50 amounted to 5.3 µM. `NS(=O)(=O)N1CCC2(CC1)C[C@H]2c1noc(-c2ccccc2OC(F)F)n1` [Example D4]: the EC50 was 0.19 µM. For the compound `NS(=O)(=O)N1CCC2(CC1)C[C@H]2c1noc(-c2ccc(Cl)cc2C(F)(F)F)n1` [Example D7], the EC50 is 0.59 µM. The same measure, in the same setting: as for `NS(=O)(=O)N1CCC2(CC1)C[C@H]2c1noc(-c2ccccc2)n1` [Example D8], the figure is 1.3 µM. As for `NS(=O)(=O)N1CCC2(CC1)C[C@H]2c1noc(-c2ccc(C(F)(F)F)cc2OC(F)F)n1` [Example D9], the EC50 stood at 0.82 µM. With `NS(=O)(=O)N1CCC2(CC1)C[C@H]2c1noc(-c2ccc(Cl)cc2OC(F)F)n1` [Example D10], the EC50 came out at 0.088 µM. Same read-out and setting: as for `NS(=O)(=O)N1CCC2(CC1)C[C@H]2c1noc(-c2cccc(OC(F)F)c2)n1` [Example D11], the figure is 0.51 µM. As to `NS(=O)(=O)N1CCC2(CC1)C[C@H]2c1noc(-c2c(F)cccc2C(F)(F)F)n1` [Example D12], the EC50 came to 1.2 µM. As for `COc1ccc(-c2nc([C@@H]3CC34CCN(S(N)(=O)=O)CC4)no2)cc1` [Example D13], the EC50 is 0.7 µM. On the same count and under the same terms, as for `NS(=O)(=O)N1CCC2(CC1)C[C@H]2c1noc(-c2ccc(F)cc2F)n1` [Example D15], the figure is 1.2 µM; as for `NS(=O)(=O)N1CCC2(CC1)C[C@H]2c1noc(-c2ccc(F)cc2C(F)(F)F)n1` [Example D16], 0.16 µM; as for `NS(=O)(=O)N1CCC2(CC1)C[C@H]2c1noc(-c2ccccc2C(F)(F)F)n1` [Example D17], 0.63 µM.

As for `NS(=O)(=O)N1CCC2(CC1)C[C@H]2c1noc(-c2ccccc2OCC(F)(F)F)n1` [Example D18], the EC50 was 0.16 µM. The same measure, in the same setting: as for `NS(=O)(=O)N1CCC2(CC1)C[C@H]2c1noc(-c2ccccc2OC(F)(F)F)n1` [Example D20], the figure is 0.2 µM. Same read-out and setting: as for `NS(=O)(=O)N1CCC2(CC1)C[C@H]2c1noc(-c2cc(F)ccc2OC(F)(F)F)n1` [Example D21], the figure is 0.24 µM; as for `NS(=O)(=O)N1CCC2(CC1)C[C@H]2c1noc(-c2cc(Cl)ccc2OC(F)(F)F)n1` [Example D22], 0.41 µM.

In the case of `CC(C)(O)c1ccc(-c2nc([C@@H]3CC34CCN(S(N)(=O)=O)CC4)no2)cc1` [Example D23], the EC50 was 1.4 µM.
